Patent US10301355B2, “Method of using pharmaceutical compositions comprising selective peptide-based agonists of melanocortin 1 receptor” (University of Cincinnati, priority 2012, dated 2019)
Entries after “also recorded” stand apart in the source; their conditions may differ.

Legend:
Type in all cases: cell-based
[1] = target: T1, MC1R (Homo sapiens, UniProt Q01726); experiment: Stimulation of cAMP formation in cultured human melanocytes; design: endogenous in cells; host or cells: cultured human melanocytes; conditions: for cAMP compared to 10 nM αMSH: cultured human melanocytes
T1 sequence (Q01726 whole entry): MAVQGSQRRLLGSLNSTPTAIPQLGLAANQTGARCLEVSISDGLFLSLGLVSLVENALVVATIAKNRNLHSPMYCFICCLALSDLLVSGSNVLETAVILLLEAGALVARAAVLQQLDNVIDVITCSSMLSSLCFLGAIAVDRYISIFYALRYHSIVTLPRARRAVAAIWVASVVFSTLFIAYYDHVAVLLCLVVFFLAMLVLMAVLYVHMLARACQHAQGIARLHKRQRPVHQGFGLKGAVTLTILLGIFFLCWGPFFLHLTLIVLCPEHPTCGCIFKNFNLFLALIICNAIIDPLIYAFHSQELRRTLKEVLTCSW
Description: Peptides were tested on cultured human melanocytes for their capacity to activate MC1R, as measured by stimulating cAMP formation. After 45 minutes of treatment with different concentrations of peptides, cAMP levels were measured using a I^125-labeled radioimmunoassay kit.
(§1) Peptides were tested as described in Example 4 above on cultured human melanocytes for their capacity to activate MC1R, as measured by stimulating cAMP formation, and for their capacity for stimulating tyrosinase activity, the rate-limiting enzyme for melanin synthesis. The tested peptides were synthesized according to the formula: Ar(CH2)mX^1—X^2—CO—X^3—X^4—X^5-(Trp)n-NX^6R wherein X^1 and X^2 are absent, X^3 is His, X^5 is Arg, and X^6 is H. X^4 amino acids were in the D-stereoisomer form, unless otherwise noted.

[2] = target: T2, hMC5R (Homo sapiens, UniProt P33032); experiment: cAMP stimulation in heterologous cells expressing hMC5R
T2 construct: expressed in transfected cells
T2 sequence (P33032 whole entry): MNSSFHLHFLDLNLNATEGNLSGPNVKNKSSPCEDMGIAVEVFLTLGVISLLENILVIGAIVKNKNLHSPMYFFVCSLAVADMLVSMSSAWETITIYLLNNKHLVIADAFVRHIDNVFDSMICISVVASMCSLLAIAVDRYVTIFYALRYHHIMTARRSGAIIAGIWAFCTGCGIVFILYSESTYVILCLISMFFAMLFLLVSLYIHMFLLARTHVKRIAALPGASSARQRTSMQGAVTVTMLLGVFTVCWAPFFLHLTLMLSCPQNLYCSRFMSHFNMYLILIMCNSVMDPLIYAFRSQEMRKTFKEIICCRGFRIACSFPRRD
Description: (§2) Receptor selectivity of peptide agonists for hMC1R was determined by stimulation of cAMP in heterologous cells expressing different human melanocortin receptors (MC1R, MC3R, MC4R, and MC5R).

[3] = target: T1, MC1R; experiment: cAMP stimulation in heterologous cells expressing hMC1R; design: expressed in transfected cells; conditions: for HMC1R % MAX. ACTIVITY: cAMP, heterologous cells
Description: as §2

[4] = target: T3, hMC4R (Homo sapiens, UniProt P32245); experiment: cAMP stimulation in heterologous cells expressing hMC4R
T3 construct: expressed in transfected cells
T3 sequence (P32245 whole entry): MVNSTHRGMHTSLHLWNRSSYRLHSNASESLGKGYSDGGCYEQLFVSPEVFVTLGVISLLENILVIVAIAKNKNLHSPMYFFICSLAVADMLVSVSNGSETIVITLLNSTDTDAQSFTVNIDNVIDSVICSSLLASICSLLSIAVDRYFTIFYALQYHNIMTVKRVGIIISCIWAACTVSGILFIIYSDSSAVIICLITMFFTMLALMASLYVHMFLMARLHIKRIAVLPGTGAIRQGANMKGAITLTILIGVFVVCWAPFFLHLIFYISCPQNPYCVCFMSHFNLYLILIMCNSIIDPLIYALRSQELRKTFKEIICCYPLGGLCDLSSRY
Description: as §2

[5] = tested on: UV-irradiated human melanocytes; experiment: Repair of UV-induced cyclobutane pyrimidine dimers (CPD); conditions: for CPD removal compared with 10 nM α-MSH: peptide at 1 nM, 48 hours post UV
Description: To investigate the effects of peptides on the repair of UV-induced DNA damage, levels of cyclobutane pyrimidine dimers (CPD), the major form of DNA photoproducts, were measured in UV-irradiated human melanocytes with or without peptide treatment. Melanocytes were pretreated with the peptides for 4 days prior to, and for 48 hours post UV exposure, harvested, immunostained by a specific antibody for CPD, and analyzed by flow cytometry.

[6] = target: T4, hMC3R (Homo sapiens, UniProt P41968); experiment: cAMP stimulation in heterologous cells expressing hMC3R
T4 construct: expressed in transfected cells
T4 sequence (P41968 whole entry): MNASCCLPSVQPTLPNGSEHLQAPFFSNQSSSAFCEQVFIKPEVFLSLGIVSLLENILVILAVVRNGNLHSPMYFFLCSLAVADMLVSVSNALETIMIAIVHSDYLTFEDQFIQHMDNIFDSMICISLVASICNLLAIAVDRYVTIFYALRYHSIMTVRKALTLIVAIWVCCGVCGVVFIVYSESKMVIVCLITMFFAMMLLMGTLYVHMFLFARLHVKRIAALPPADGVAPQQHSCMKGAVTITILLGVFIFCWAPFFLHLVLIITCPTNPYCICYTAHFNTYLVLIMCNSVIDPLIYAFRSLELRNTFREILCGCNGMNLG
Description: as §2

[7] = tested on: tyrosinase; experiment: Stimulation of tyrosinase activity in cultured human melanocytes; conditions: for TA compared to 10 nM αMSH: tyrosinase activity, cultured human melanocytes
Description: Peptides were tested on cultured human melanocytes for their capacity for stimulating tyrosinase activity, the rate-limiting enzyme for melanin synthesis. Melanocytes were treated every other day, for a total of 6 days, with increasing concentrations of peptides. Medium containing H^3-tyrosine, the substrate for tyrosinase, was added to melanocytes 24 hours before the end of the 6-day treatment. Tyrosinase activity was measured by determining the amount of ^3H2O generated as […] is catalyzed by tyrosinase for melanin synthesis.
as §1

[8] = tested on: UV-irradiated human melanocytes; experiment: Repair of UV-induced 8-oxodG
Description: To investigate the effects of peptides on repair of UV-induced DNA damage, levels of 8-oxodG, a major form of oxidative DNA damage, were measured in UV-irradiated human melanocytes with or without peptide treatment. […] Fluorescence intensity, which correlates with the amount of DNA damage, was quantified using ImagJ software.

[9] = human melanocytes, 45 minutes of treatment
[10] = human melanocytes, 6 days treatment

“Ph(CH2)3CO-His-(D-4-tBuPhe)-Arg-NHEt [494P]” was tested, and the “cAMP compared to 10 nM αMSH” value [1] was “<<”.
In the case of `N=C(N)NCCC[C@H](NC(=O)[C@@H](Cc1cccc2ccccc12)NC(=O)[C@H](Cc1c[nH]cn1)NC(=O)CCCc1ccccc1)C(=O)N[C@@H](Cc1c[nH]c2ccccc12)C(N)=O` [LK-467, Ph(CH2)3CO-His-(D-1-Nal)-Arg-Trp-NH2], the “HMC5R % MAX. ACTIVITY” value ([2]; cAMP, heterologous cells) is reported as 34%, the “HMC1R % MAX. ACTIVITY” value [3] is reported as 111% and the “potency at hMC4R compared with LK-184” value [4] is reported as “about ten times less potent”. The “HMC4R % MAX. ACTIVITY” value ([4]; cAMP, heterologous cells) was 39%, the “reduction of CPD levels, comparison with LK-184” value ([5]; 48 hours after UV exposure) was “as effective as LK-184” and the “CPD removal compared with 10 nM α-MSH” value [5] was “same effect at 1 nM on CPD removal as 10 nM a-MSH; also recorded: same effect at 1 nM on CPD removal as 10 nM α-MSH”. For the same compound, the “HMC3R % MAX. ACTIVITY” value ([6]; cAMP, heterologous cells) was 7%, the “cAMP compared to 10 nM αMSH” value [1] was “>” and the “potency in stimulating cAMP formation, comparison” value (“potency … comparison” below) [1, 9] was “more potent than LK-184”. The “effect on tyrosinase activity, comparison” value (“effect” below) [7, 10] was “comparable effects in tyrosinase activity”, the “potency relative to a-MSH in activating MC1R and stimulating melanogenesis” value [7, 10] was “at least 100 times” and the “reduction of 8-oxodG levels, comparison with LK-184” value ([8]; 24 hours after UV exposure) was “as effective as LK-184”.
“Ph(CH2)3CO-His-(D-2-Thi)-Arg-Trp-NH2 [476P]” was tested, and the “cAMP compared to 10 nM αMSH” value [1] was “>”.
“melanotan II [MT-II, reference compound]” was tested, and the “HMC5R % MAX. ACTIVITY” value ([2]; cAMP, heterologous cells) was 100% and the “HMC1R % MAX. ACTIVITY” value [3] was 103%.
“Ph(CH2)3CO-His-(D-4-Bip)-Arg-NHEt [493P]” was tested, and the “cAMP compared to 10 nM αMSH” value [1] was “<<”.
With “4-FC6H4CH2CO-His-(D-1-Nal)-Arg-NHEt [495P]” the “cAMP compared to 10 nM αMSH” value [1] was “NR (NR = No Response/inactive at 10 nM)”.
In the case of “4-FC6H4CH2CO-His-(D-4-Bip)-Arg-NHEt [497P]”, the “cAMP compared to 10 nM αMSH” value [1] is reported as “NR (NR = No Response/inactive at 10 nM)”.
With `N=C(N)NCCC[C@H](NC(=O)[C@@H](Cc1ccccc1)NC(=O)[C@H](Cc1c[nH]cn1)NC(=O)CCCc1ccccc1)C(=O)N[C@@H](Cc1c[nH]c2ccccc12)C(N)=O` [LK-184, Ph(CH2)3CO-His-(D-Phe)-Arg-Trp-NH2] the “HMC5R % MAX. ACTIVITY” value ([2]; cAMP, heterologous cells) was 39%, the “HMC1R % MAX. ACTIVITY” value [3] was 128% and the “HMC4R % MAX. ACTIVITY” value ([4]; cAMP, heterologous cells) was 102%. For the same compound, the “CPD removal compared with 10 nM α-MSH” value [5] was “same effect at 1 nM on CPD removal as 10 nM a-MSH; also recorded: same effect at 1 nM on CPD removal as 10 nM α-MSH”, the “HMC3R % MAX. ACTIVITY” value ([6]; cAMP, heterologous cells) was 85% and the “concentration giving maximal levels of cAMP” value [1, 9] was 10 nM. For the same compound, the “effect” value [7, 10] was “comparable effects in tyrosinase activity”.
With Ph(CH2)3CO-His-(D-2-Nal)-Arg-NH2 [515P] the “TA compared to 10 nM αMSH” value [7] was “<<”.
Ph(CH2)3CO-His-(D-1-Nal)-Arg-NH2 [510P] was tested, and the “TA compared to 10 nM αMSH” value [7] was “NR (NR = No Response/inactive at 10 nM)”.
In the case of “Ph(CH2)3CO-His-(D-4-tBuPhe)-Arg-NHMe [516P]”, the “TA compared to 10 nM αMSH” value [7] is reported as “<<”.
For “Ph(CH2)3CO-His-(D-2-Nal)-Arg-NHEt [492P]”, the “cAMP compared to 10 nM αMSH” value [1] was “NR (NR = No Response/inactive at 10 nM)”.
“4-FC6H4CH2CO-His-(D-4-tBuPhe)-Arg-NHEt [498P]” was tested, and the “cAMP compared to 10 nM αMSH” value [1] was “NR** (NR = No Response/inactive at 10 nM)”.
With “Ph(CH2)3CO-His-(D-4-IPhe)-Arg-Trp-NH2 [475P]” the “cAMP compared to 10 nM αMSH” value [1] was “<; >”.
In the case of “4-BrC6H4CH2CO-His-(D-4-FPhe)-Arg-Trp-NH2 [208P]”, the “cAMP compared to 10 nM αMSH” value [1] is reported as “>”.
In the case of “Ph(CH2)3CO-His-(D-1-Nal)-Arg-NHMe [512P]”, the “TA compared to 10 nM αMSH” value [7] is reported as “NR (NR = No Response/inactive at 10 nM)”.
“Ph(CH2)3CO-His-(D-1-Nal)-Arg-NHEt [491P]” was tested, and the “cAMP compared to 10 nM αMSH” value [1] was “NR (NR = No Response/inactive at 10 nM)”.
“Ph(CH2)3CO-His-(D-2-Nal)-Arg-Trp-NH2 [468P]” was tested, and the “cAMP compared to 10 nM αMSH” value [1] was “≤”.
With “Ph(CH2)3CO-His-(D-3-NO2Phe)-Arg-Trp-NH2 [472P]” the “cAMP compared to 10 nM αMSH” value [1] was “<”.
“Ph(CH2)3CO-His-(D-4-BrPhe)-Arg-Trp-NH2 [474P]” was tested, and the “cAMP compared to 10 nM αMSH” value [1] was “=; <; >”.
With “Ph(CH2)3CO-His-(D-4-ClPhe)-Arg-Trp-NH2 [473P]” the “cAMP compared to 10 nM αMSH” value [1] was “=; >”.
In the case of “4-FC6H4CH2CO-His-(D-4-FPhe)-Arg-Trp-NH2 [205P]”, the “cAMP compared to 10 nM αMSH” value [1] is reported as “≤” and the “TA compared to 10 nM αMSH” value [7] is reported as “≥”.
“Ph(CH2)3CO-His-(D-4-FPhe)-Arg-Trp-NH2 [470P]” was tested, and the “cAMP compared to 10 nM αMSH” value [1] was “>”.
`N=C(N)NCCC[C@H](NC(=O)[C@@H](Cc1ccc(-c2ccccc2)cc1)NC(=O)[C@H](Cc1c[nH]cn1)NC(=O)CCCc1ccccc1)C(N)=O` [LK-511, Ph(CH2)3CO-His-(D-4-Bip)-Arg-NH2] was tested, and the “binding of MC5R” value [2] was “do not bind”, the “HMC5R EC50” value ([2]; cAMP, heterologous cells) was “INACTIVE” and the “potency in activation of MC1R compared with MT-II” value [3] was “about as potent as MT-II”. For the same compound, the “HMC1R % MAX. ACTIVITY” value [3] was 88%, the “binding of MC4R” value [4] was “do not bind” and the “HMC4R EC50” value ([4]; cAMP, heterologous cells) was “INACTIVE”. The “binding of MC3R” value [6] was “do not bind”, the “HMC3R EC50” value ([6]; cAMP, heterologous cells) was “INACTIVE” and the “cAMP compared to 10 nM αMSH” value [1] was “<”. For the same compound, the “potency … comparison” value [1, 9] was “about ten times less potent than a-MSH; also recorded: about ten times less potent than α-MSH”, the “concentration at which significant stimulation of tyrosinase activity begins” value [7, 10] was 1 nM and the “TA compared to 10 nM αMSH” value [7] was “<”.
“4-IC6H4CH2CO-His-(D-Phe)-Arg-Trp-NH2 [488P]” was tested, and the “cAMP compared to 10 nM αMSH” value [1] was “>>”.
For “Ph(CH2)3CO-His-(D-Phe)-Arg-Trp-NHEt [LK-487]”, the “cAMP compared to 10 nM αMSH” value [1] was “>*”, the “potency … comparison” value [1, 9] was “equipotent to LK-467” and the “effect” value [7, 10] was “equipotent to LK-467”.
In the case of `CC(C)(C)c1ccc(C[C@@H](NC(=O)[C@H](Cc2c[nH]cn2)NC(=O)CCCc2ccccc2)C(=O)N[C@@H](CCCNC(=N)N)C(N)=O)cc1` [LK-514, Ph(CH2)3CO-His-(D-4-tBuPhe)-Arg-NH2], the “binding of MC5R” value [2] is reported as “do not bind”, the “potency in activation of MC1R compared with MT-II” value [3] is reported as “about as potent as MT-II” and the “HMC1R % MAX. ACTIVITY” value [3] is reported as 94%. The “binding of MC4R” value [4] was “do not bind”, the “binding of MC3R” value [6] was “do not bind” and the “cAMP compared to 10 nM αMSH” value [1] was “<”. The “potency … comparison” value [1, 9] was “about ten times less potent than a-MSH; also recorded: more potent than LK-511 or 513; also recorded: about ten times less potent than α-MSH; also recorded: more potent than LK-511 or LK-513”, the “concentration at which significant stimulation of tyrosinase activity begins” value [7, 10] was 1 nM and the “effect” value [7, 10] was “the most effective”. The “TA compared to 10 nM αMSH” value [7] was “<” and the “reduction of 8-oxodG levels compared with 1 nM α-MSH” value ([8]; peptide at 100 nM, 24 hours post UV) was “greater effect than 1 nM α-MSH”.
For “4-FC6H4CH2CO-His-(D-2-Nal)-Arg-NHEt [496P]”, the “cAMP compared to 10 nM αMSH” value [1] was “NR (NR = No Response/inactive at 10 nM)”.
In the case of “Ph(CH2)3CO-His-(D-4-NO2Phe)-Arg-Trp-NH2 [471P]”, the “cAMP compared to 10 nM αMSH” value [1] is reported as “=”.
For “Ph(CH2)3CO-His-(D-2-Nal)-Arg-NHMe [517P]”, the “TA compared to 10 nM αMSH” value [7] was “<<<”.
